Test [1] concerns HIV-1 constructs containing mutant IN H51Y. Put plainly: Single-round HIV-1 infectivity assay, IN mutant H51Y. Type of test: cell-based. As to conditions: Human immunodeficiency virus 1; Table 8; read-out: EC50 (nM, IN mutants) H51Y. As for the experimental part: (§1) Single-Round HIV-1 Infectivity Assay.
(§2) Human embryonyl kidney cell culture cell line 293 was acquired from the American type Culture Collection (ATCC).
(§3) […]. […] The virus-containing supernatants were then harvested, clarified by low-speed centrifugation, filtrated, and diluted for preparation in infection assays. […] After compound incorporation and activation in the cell, 100 μL of virus-stock diluted to achieve a maximum luciferase signal between 0.2 and 1.5 RLUs was added to each well and further incubated at 37° C. for 48 hrs. […] Activity was normalized to infectivity in the absence of target compounds. KaleidaGraph (Synergy Software, Reading, Pa.) was used to perform regression analysis on the data. EC50 values were determined from the fit model.
(§4) pNLNgoMIVR^−ΔEnv.LUC has been described previously (Zhao et al. 2008). The integrase codon reading frame was removed from pNLNgoMIVR^−ΔEnv LUC (between KpnI and SalI sites) and placed between the KpnI and SalI sites of pBluescript II KS+. Using that construct as the wild-type template, we prepared the following HIV-1 Integrase-resistant mutants via the QuikChange II XL (Stratagene, La Jolla, Calif.) site-directed mutagenesis protocol: H51Y, T66I, E92Q, G118R, Y143R, Q148H, Q148K, N155H, R263K, G140S+Q148H, G140A+Q148K, E138K+Q148K, and H51Y+R263K. The following sense with cognate antisense (not shown) oligonucleotides (Integrated DNA Technologies, Coralville, Iowa) were used in the mutagenesis: H51Y, 5′-[…]-3; T66I, 5′-[…]-3′; E92Q, 5′-[…]-3′; G118R, 5′-[…]-3′; E138K, 5′-[…]-3; G140A, 5′-[…]-3; G140S, 5′-[…]-3′; Y143R, 5′-[…]-3′; Q148H, 5′-[…]-3′; Q148K, 5′-[…]-3; N155H, 5′-[…]-3′; R263K 5′-[…]-3′. The double mutation G140S+Q148H was constructed by using the previously generated Q148H mutant and the appropriate oligonucleotide for the 2nd mutation, G140S. The double mutation G140A+Q148K was made by using the Q148K mutant and the appropriate oligonucleotide for the 2nd mutation, G140A. The double mutation E138K+Q148K was made by using the Q148K mutant and the appropriate oligonucleotide for the 2nd mutation, E138K. The double mutation H51Y+R263K was constructed by using the previously generated H51Y mutant and the appropriate oligonucleotides for the 2nd mutation, R263K. The DNA sequence of each construct was verified independently by DNA sequence determination. The mutant integrase coding sequences from pBluescript II KS+ were then subcloned into pNLNgoMIVR^−ΔEnv LUC (between the KpnI and SalI sites) to produce the full-length mutant HIV-1 Integrase constructs. These DNA sequences were additionally checked independently by DNA sequence determination.

Another test has as its target HIV-1 integrase (Human immunodeficiency virus type 1 group M subtype B, UniProt P12497). The experiment in a line: biochemical. The class given is biochemical. The gist of the method: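 Compounds or DMSO added to 20 nM DNA and 400 nM integrase in 50 mM MOPS pH 7.2, 7.5 mM MgCl2, 14 mM 2-mercaptoethanol; 2 h at 37° C, quenched with formamide/SDS loading buffer. Products resolved on gels, imaged and quantified by densitometry.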

Test [2] deals with HIV-1 constructs containing mutant IN H51Y/R263K. Put plainly: Single-round HIV-1 infectivity assay, IN double mutant H51Y/R263K. The class given is cell-based. As to conditions: Human immunodeficiency virus 1; Table 8; read-out: EC50 (nM, IN mutants) H51Y/R263K. As for the experimental part: as §1, §2, §3, §4
Test [3] concerns HIV-1 constructs containing mutant IN E92Q. The experiment in a line: Single-round HIV-1 infectivity assay, IN mutant E92Q. Type of test: cell-based. As to conditions: Human immunodeficiency virus 1; Table 8; read-out: EC50 (nM, IN mutants) E92Q. Here is the method:
as §1, §2, §3, §4

Test [4] relates to HIV-1 constructs containing mutant IN T66I. Put plainly: Single-round HIV-1 infectivity assay, IN mutant T66I. The class given is cell-based. To be noted: Human immunodeficiency virus 1; Table 8; read-out: EC50 (nM, IN mutants) T66I. As for the experimental part:
as §1, §2, §3, §4

Test [5] has as its system HIV-1 constructs containing mutant IN E138K-Q148K. Put plainly: Single-round HIV-1 infectivity assay, IN double mutant E138K-Q148K. The class given is cell-based. Here is the method: as §1, §2, §3
pNLNgoMIVR^−ΔEnv.LUC has been described previously (Zhao et al. 2008). The integrase codon reading frame was removed from pNLNgoMIVR^−ΔEnv LUC (between KpnI and SalI sites) and placed between the KpnI and SalI sites of pBluescript II KS+. Using that construct as the wild-type template, we prepared the following HIV-1 Integrase-resistant mutants via the QuikChange II XL (Stratagene, La Jolla, Calif.) site-directed mutagenesis protocol: H51Y, T66I, E92Q, G118R, Y143R, Q148H, Q148K, N155H, R263K, G140S+Q148H, G140A+Q148K, E138K+Q148K, and H51Y+R263K. […]

The test system of a further test is HIV-1 WT IN. The experiment in a line: High growth serum assays in cells (WT). The class given is cell-based.
Where [6] appears, read: Table 10, strand transfer, read-out: IC50 (nM, ST).
[7] abbreviates: Table 4, 3′-processing, read-out: IC50 (3^+-Processing).
The mark [8] stands for this setting: Table 4, strand transfer, read-out: IC50 (Strand Transfer).
Where [9] appears, read: Human immunodeficiency virus 1, read-out: EC50 (nM), Table 9, 10% FBS.
[10] abbreviates: Human immunodeficiency virus 1, read-out: EC50 (nM), Table 9, 15% FBS.
The mark [11] stands for this setting: Table 7, 3′-processing, read-out: IC50 (μM) 3′-P.
The mark [12] stands for this setting: Table 7, strand transfer, read-out: IC50 (μM) ST.

The structures appear in SMILES notation. Read-outs that look alike come from different tables or passages of the source.

With `C[C@@H]1CCO[C@H]2Cn3cc(C(=O)NCc4ccc(F)cc4F)c(=O)c(O)c3C(=O)N12` [DTG, dolutegravir, reference compound], the EC50 in test [1] worked out at 3.2 nM; in test [2] it was 16 nM; in test [3] it was 2.3 nM; in test [4], 0.9 nM. Further, the half-maximal inhibitory concentration (IC50) (commonly the concentration at which inhibition is half-maximal) on HIV-1 integrase (setting [6]) was 12.4 ± 2.6 nM.
Regarding `O=C(NCc1ccc(F)cc1F)c1c(O)c2cccnc2n(O)c1=O` [XZ351, N-(2,4-difluorobenzyl)-1,4-dihydroxy-2-oxo-1,2-dihydro-1,8-naphthyridine-3-carboxamide], the “Integrase Mutants KK (E138K-Q148K), fold-change in EC50 relative to WT” value in test [5] is on record as 32 x. Also, the half-inhibitory concentration (IC50) on HIV-1 integrase (Table 1, 3′-processing, read-out: IC50 Values 3′-Processing) came to 1200 ± 200 nM; at HIV-1 integrase (Table 1, strand transfer, read-out: IC50 Values Strand transfer) it was 55 ± 8 nM.
For the molecule `COC(=O)CNc1c(C(=O)NCc2ccc(F)cc2F)c(=O)n(O)c2ncccc12` [XZ379, Methyl 2-((3-((2,4-difluorobenzyl)carbamoyl)-1-hydroxy-2-oxo-1,2-dihydro-1,8-naphthyridin-4-yl)amino)acetate], the half-inhibitory concentration (IC50) at HIV-1 integrase (setting [7]) was 710 ± 100 nM; at HIV-1 integrase (setting [8]), 21 ± 11 nM. Besides, the values for the EC50 in the test with HIV-1 WT IN (setting [9]) and in the test on HIV-1 WT IN (setting [10]) were 5 nM and 1 nM, respectively.
On the same counts, the results for `CC(=O)OCCNc1c(C(=O)NCc2ccc(F)cc2F)c(=O)n(O)c2ncccc12` [XZ402, 2-((3-((2,4-difluorobenzyl)carbamoyl)-1-hydroxy-2-oxo-1,2-dihydro-1,8-naphthyridin-4-yl)amino)ethyl acetate] are 5300 ± 500 nM, 27 ± 6 nM, 2.2 ± 0.3 nM and 1 nM.
Take `Nc1c(C(=O)NCc2ccc(F)cc2F)c(=O)n(O)c2ncc(CCCCCO)cc12` [XZ419, 4-Amino-N-(2,4-difluorobenzyl)-1-hydroxy-6-(5-hydroxypentyl)-2-oxo-1,2-dihydro-1,8-naphthyridine-3-carboxamide]: the EC50 in test [1] stood at 3.8 nM; in test [2] it was 2.6 nM; in test [3] it was 3.8 nM; in the test on HIV-1 WT IN (setting [9]), 0.93 ± 0.2 nM; in the test with HIV-1 WT IN (setting [10]), 2.1 ± 0.4 nM; in test [4] it was 0.93 nM. For the same molecule, the 50% inhibitory concentration (IC50) on HIV-1 integrase (setting [11]) stood at 8200 ± 1200 nM; at HIV-1 integrase (setting [12]), 2.7 ± 0.4 nM.
Consider `Nc1c(C(=O)NCc2ccc(F)cc2F)c(=O)n(O)c2ncc(CCCO)cc12` [XZ423, 4-Amino-N-(2,4-difluorobenzyl)-1-hydroxy-6-(3-hydroxypropyl)-2-oxo-1,2-dihydro-1,8-naphthyridine-3-carboxamide], for which the EC50 turned out to be 2.6 nM in test [1], 14.7 nM in test [2], 4.8 ± 2 nM in test [3] and 1.1 nM in test [4]. Moreover, the IC50 was found to be 4300 ± 600 nM at HIV-1 integrase (setting [11]) and 11.3 ± 2.7 nM on HIV-1 integrase (setting [12]).
In the case of `CC(=O)OCCCc1cnc2c(c1)c(N)c(C(=O)NCc1ccc(F)cc1F)c(=O)n2O` [XZ424, 3-(5-Amino-6-((2,4-difluorobenzyl)carbamoyl)-8-hydroxy-7-oxo-7,8-dihydro-1,8-naphthyridin-3-yl)propyl acetate], the EC50 came to 0.8 nM in test [1], 3.9 nM in test [2], 1.2 nM in test [3] and 0.75 nM in test [4]. Besides, the IC50 on HIV-1 integrase (setting [11]) stood at 14300 ± 2100 nM; at HIV-1 integrase (setting [12]) it was 10.2 ± 1.6 nM.
Take `Nc1c(C(=O)NCc2ccc(F)cc2F)c(=O)n(O)c2ncc(CCCCCCO)cc12` [XZ426, 4-Amino-N-(2,4-difluorobenzyl)-1-hydroxy-6-(6-hydroxyhexyl)-2-oxo-1,2-dihydro-1,8-naphthyridine-3-carboxamide]: the EC50 in test [1] stood at 1.6 nM; in test [2] it was 5.2 nM; in test [3] it was 0.74 nM; with HIV-1 WT IN (setting [9]), 0.8 ± 0.2 nM; in test [4], 0.5 nM. For the same molecule, the values for the concentration for half-maximal inhibition (IC50) at HIV-1 integrase (setting [11]) and on HIV-1 integrase (setting [12]) were 19000 ± 1000 nM and 0.59 ± 0.11 nM, respectively.
For `Nc1c(C(=O)NCc2ccc(F)cc2F)c(=O)n(O)c2ncc(CCCCCCCCO)cc12` [XZ433, 4-Amino-N-(2,4-difluorobenzyl)-1-hydroxy-6-(8-hydroxyoctyl)-2-oxo-1,2-dihydro-1,8-naphthyridine-3-carboxamide], the EC50 came to 4.8 nM in test [1], 22.4 nM in test [2], 2.6 nM in test [3] and 1.7 nM in test [4]. For the same molecule, the values for the half-inhibitory concentration (IC50) on HIV-1 integrase (setting [11]) and at HIV-1 integrase (setting [12]) were 32000 ± 6000 nM and 5.4 ± 0.8 nM, respectively.
Regarding `COC(=O)CCc1cnc2c(c1)c(N)c(C(=O)NCc1ccc(F)cc1F)c(=O)n2O` [XZ434, Methyl 3-(5-amino-6-((2,4-difluorobenzyl)carbamoyl)-8-hydroxy-7-oxo-7,8-dihydro-1,8-naphthyridin-3-yl)propanoate], the EC50 in test [1] was determined as 0.63 nM; in test [2] it was 2.4 nM; in test [3] it was 2 ± 1.1 nM; with HIV-1 WT IN (setting [9]), 0.62 ± 0.2 nM; in the test on HIV-1 WT IN (setting [10]) it was 0.6 nM; in test [4], 0.53 nM. The figures for the IC50 at HIV-1 integrase (setting [11]) and on HIV-1 integrase (setting [12]) were 2900 ± 600 nM and 1.8 ± 0.2 nM, respectively.
As to `O=C(NCc1ccc(F)cc1F)c1c(NCCO)c2cc(CCCCCO)cnc2n(O)c1=O` [XZ437, N-(2,4-Difluorobenzyl)-1-hydroxy-4-((2-hydroxyethyl)amino)-6-(5-hydroxypentyl)-2-oxo-1,2-dihydro-1,8-naphthyridine-3-carboxamide], the EC50 in test [1] was determined as 10.8 nM; in test [2], 30.9 nM; in test [3], 6.5 nM; in test [4], 1.9 nM. Moreover, the IC50 came out at 4000 ± 500 nM on HIV-1 integrase (setting [11]) and 2.5 ± 0.2 nM at HIV-1 integrase (setting [12]).
`COC(=O)CCc1cnc2c(c1)c(NCCO)c(C(=O)NCc1ccc(F)cc1F)c(=O)n2O` [XZ438, Methyl 3-(6-((2,4-difluorobenzyl)carbamoyl)-8-hydroxy-5-((2-hydroxyethyl)amino)-7-oxo-7,8-dihydro-1,8-naphthyridin-3-yl)propanoate]: the EC50 in test [1] came to 6.9 nM; in test [2], 2.5 nM; in test [3], 2.7 nM; in test [4], 0.62 nM. The results for the half-inhibitory concentration (IC50) at HIV-1 integrase (setting [11]) and at HIV-1 integrase (setting [12]) were 3200 ± 300 nM and 3.1 ± 0.3 nM, respectively.
For the molecule `O=C(NCc1ccc(F)cc1F)c1c(O)c2c(CO)ccnc2n(O)c1=O` [XZ440, N-(2,4-Difluorobenzyl)-1,4-dihydroxy-5-(hydroxymethyl)-2-oxo-1,2-dihydro-1,8-naphthyridine-3-carboxamide], the EC50 in test [1] stood at 5 nM; in test [2] it was 9 ± 0.6 nM; in test [3], 4 ± 0.6 nM; in test [4], 1.4 nM. The concentration for half-maximal inhibition (IC50) at HIV-1 integrase (setting [6]) is 14.5 ± 0.8 nM.

Values taken from US9676771B2, “Compounds for inhibiting drug-resistant strains of HIV-1 integrase” (priority 2013, dated 2017).
